Assay results reported in paper PMC2713172 (Biochemistry, 2008).
Where two headings read alike, the source gives them in different places.

Tests used:
CYP2C9 F100L mutant [1] = target: T1, CYP2C9 F100L mutant (Homo sapiens, UniProt P11712, F100L)
CYP2C9 F114L mutant [2] = target: T2, CYP2C9 F114L mutant (Homo sapiens, UniProt P11712, F114L)
CYP2C9 F476L mutant [3] = target: T3, CYP2C9 F476L mutant (Homo sapiens, UniProt P11712, F476L)
CYP2C9 F114W mutant [4] = target: T4, CYP2C9 F114W mutant (Homo sapiens, UniProt P11712, F114W)
CYP2C9 F476W mutant [5] = target: T5, CYP2C9 F476W mutant (Homo sapiens, UniProt P11712, F476W)
CYP2C9 F100L mutant [6] = target: T1, CYP2C9 F100L mutant; conditions: F100L
CYP2C9 F476L mutant [7] = target: T3, CYP2C9 F476L mutant; conditions: F476L
CYP2C9 F476W mutant [8] = target: T5, CYP2C9 F476W mutant; remark: listed apart in the source
[9] = target: T6, CYP2C9 F114L/F476L double mutant (Homo sapiens, UniProt P11712, F114L/F476L); conditions: F114L/F476L
[10] = target: T7, CYP2C9 F114W/F476W double mutant (Homo sapiens, UniProt P11712, F114W/F476W); conditions: F114W/F476W
wild-type CYP2C9 [11] = target: T8, wild-type CYP2C9 (Homo sapiens, UniProt P11712); conditions: WT; for T1, 2C9 + CO: dithionite/CO
wild-type CYP2C9 [12] = target: T8, wild-type CYP2C9
CYP2C9 F476W mutant [13] = target: T5, CYP2C9 F476W mutant; remark: listed apart in the source
CYP2C9 F100L mutant [14] = target: T1, CYP2C9 F100L mutant; assay: in vitro; conditions: pH 7.4
CYP2C9 F114W mutant [15] = target: T4, CYP2C9 F114W mutant; assay: in vitro; conditions: pH 7.4
CYP2C9 F476W mutant [16] = target: T5, CYP2C9 F476W mutant; assay: in vitro; conditions: pH 7.4
wild-type CYP2C9 [17] = target: T8, wild-type CYP2C9; assay: biochemical
CYP2C9 F114L mutant [18] = target: T2, CYP2C9 F114L mutant; assay: biochemical
CYP2C9 F476L mutant [19] = target: T3, CYP2C9 F476L mutant; assay: biochemical
CYP2C9 F114W mutant [20] = target: T4, CYP2C9 F114W mutant; assay: biochemical
[21] = target: T6, CYP2C9 F114L/F476L double mutant; assay: biochemical
[22] = target: T7, CYP2C9 F114W/F476W double mutant; assay: biochemical
CYP2C9 F476W mutant [23] = target: T5, CYP2C9 F476W mutant; assay: 1H-NMR T1 relaxation, distances of ligand protons from the heme iron
wild-type CYP2C9 [24] = target: T8, wild-type CYP2C9; remark: listed apart in the source

## C[C@H](C(=O)O)c1ccc(-c2ccccc2)c(F)c1 [(S)-flurbiprofen]
CYP2C9 F100L mutant [1]
  percent of wild-type kcat/Km: 100%
CYP2C9 F100L mutant [1]; substrate hydroxylation
  kcat: 0.205 ± 0.012 s⁻¹
CYP2C9 F114L mutant [2]
  percent of wild-type kcat/Km: 28%
CYP2C9 F476L mutant [3]; F476L
  percent of wild-type kcat/Km: 29%
CYP2C9 F476L mutant [3]; F476→L mutation vs wild-type
  decrease of the efficiency of metabolism: 70%
CYP2C9 F114W mutant [4]
  percent of wild-type kcat/Km: 120%
CYP2C9 F114W mutant [4]; substrate hydroxylation
  kcat: 0.153 ± 0.0067 s⁻¹
CYP2C9 F476W mutant [5]
  decrease of efficiency of turnover relative to wild-type: 20 fold
  percent of wild-type kcat/Km: 5%
CYP2C9 F476W mutant [5]; substrate hydroxylation
  kcat: 0.0267 ± 0.0033 s⁻¹
CYP2C9 F100L mutant [6]
  percent of wild-type ΔA/K: 137%
  ΔA/K: 7.3 μM^−1 × 10^−3
  ΔAmax (maximum observed difference 390–420 nm): 16 ± 0.3 ×10^−3
CYP2C9 F476L mutant [7]
  percent of wild-type ΔA/K: 23%
  ΔA/K: 1.2 μM^−1 × 10^−3
  ΔAmax (maximum observed difference 390–420 nm): 11 ± 0.4 ×10^−3
CYP2C9 F476W mutant [8]; F476W
  percent of wild-type ΔA/K: 5%
  ΔA/K: 0.3 μM^−1 × 10^−3
CYP2C9 F476W mutant [8]; F476W + ligand, used for the NMR distance calculation
  fraction high spin: 0.06
[9]
  percent of wild-type ΔA/K: 8%
  ΔA/K: 0.4 μM^−1 × 10^−3
  ΔAmax (maximum observed difference 390–420 nm): 4.4 ± 0.2 ×10^−3
[10]
  percent of wild-type ΔA/K: 6%
  ΔA/K: 0.3 μM^−1 × 10^−3
  ΔAmax (maximum observed difference 390–420 nm): 7.3 ± 0.4 ×10^−3
wild-type CYP2C9 [11]; proton H2
  T1, 2C9: 2.44 (0.10) seconds
  r, distance of proton from the heme iron: 5.95 (0.11) angstroms
  T1, 2C9 + CO: 2.79 (0.14) seconds
wild-type CYP2C9 [11]; proton H4′
  T1, 2C9: 3.44 (0.26) seconds
  r, distance of proton from the heme iron: 6.11 (0.19) angstroms
  T1, 2C9 + CO: 4.25 (0.44) seconds
wild-type CYP2C9 [11]; proton H5
  T1, 2C9: 2.17 (0.07) seconds
  r, distance of proton from the heme iron: 6.27 (0.16) angstroms
  T1, 2C9 + CO: 2.26 (0.10) seconds
wild-type CYP2C9 [11]; proton H6
  T1, 2C9: 1.79 (0.05) seconds
  r, distance of proton from the heme iron: 7.30 (0.19) angstroms
  T1, 2C9 + CO: 2.04 (0.10) seconds
wild-type CYP2C9 [11]; protons CH3
  T1, 2C9: 0.68 (0.01) seconds
  r, distance of proton from the heme iron: 7.82 (0.09) angstroms
  T1, 2C9 + CO: 0.68 (0.01) seconds
wild-type CYP2C9 [11]; protons H2′/6′
  T1, 2C9: 2.38 (0.07) seconds
  r, distance of proton from the heme iron: 6.02 (0.37) angstroms
  T1, 2C9 + CO: 2.77 (0.07) seconds
wild-type CYP2C9 [11]; protons H3′/5′
  T1, 2C9: 2.42 (0.08) seconds
  r, distance of proton from the heme iron: 5.82 (0.15) angstroms
  T1, 2C9 + CO: 2.70 (0.11) seconds
wild-type CYP2C9 [12]; WT
  H2O2/O2: 0.43
  H2O/Metabolite: 0.7
wild-type CYP2C9 [12]; WT, coupling efficiency
  Metabolite/NADPH: 0.21
wild-type CYP2C9 [12]; wild-type CYP2C9
  coupling of hydroxylation to NADPH consumption: ~ 20%
CYP2C9 F476W mutant [13]
  H2O2/O2: 0.71
  H2O/Metabolite: 1.6
CYP2C9 F476W mutant [13]; coupling efficiency
  Metabolite/NADPH: 0.06
CYP2C9 F100L mutant [14]
  Km at 20 min: 34.8 ± 7 µM
CYP2C9 F114W mutant [15]
  Km at 20 min: 19.5 ± 3.2 µM
CYP2C9 F476W mutant [16]
  Km at 20 min: 105 ± 3.9 µM
wild-type CYP2C9 [17]
  Kd: 3.4 ± 0.4 µM
CYP2C9 F114L mutant [18]
  Kd: 4.1 ± 0.6 µM
CYP2C9 F476L mutant [19]
  Kd: 9.1 ± 1 µM
CYP2C9 F114W mutant [20]
  Kd: 4 ± 0.2 µM
[21]
  Kd: 9.9 ± 1.3 µM
[22]
  Kd: 22.3 ± 4.1 µM
CYP2C9 F476W mutant [23]; proton H2
  T1, 2C9: 2.56 (0.15) seconds
  r, distance of proton from the heme iron: 6.58 (0.28) angstroms
CYP2C9 F476W mutant [23]; proton H2, dithionite/CO
  T1, 2C9 + CO: 2.34 (0.14) seconds
CYP2C9 F476W mutant [23]; proton H4′
  T1, 2C9: 2.88 (0.14) seconds
  r, distance of proton from the heme iron: 6.40 (0.32) angstroms
CYP2C9 F476W mutant [23]; proton H4′, dithionite/CO
  T1, 2C9 + CO: 2.55 (0.16) seconds
CYP2C9 F476W mutant [23]; proton H5
  T1, 2C9: 2.11 (0.10) seconds
  r, distance of proton from the heme iron: 6.47 (0.24) angstroms
CYP2C9 F476W mutant [23]; proton H5, dithionite/CO
  T1, 2C9 + CO: 2.24 (0.18) seconds
CYP2C9 F476W mutant [23]; proton H6
  T1, 2C9: 1.78 (0.08) seconds
  r, distance of proton from the heme iron: 6.79 (0.22) angstroms
CYP2C9 F476W mutant [23]; proton H6, dithionite/CO
  T1, 2C9 + CO: 1.85 (0.08) seconds
CYP2C9 F476W mutant [23]; protons CH3
  T1, 2C9: 0.67 (0.01) seconds
  r, distance of proton from the heme iron: 5.62 (0.25) angstroms
CYP2C9 F476W mutant [23]; protons CH3, dithionite/CO
  T1, 2C9 + CO: 0.65 (0.03) seconds
CYP2C9 F476W mutant [23]; protons H2′/6′
  T1, 2C9: 2.38 (0.06) seconds
  r, distance of proton from the heme iron: 7.15 (0.13) angstroms
CYP2C9 F476W mutant [23]; protons H2′/6′, dithionite/CO
  T1, 2C9 + CO: 2.54 (0.07) seconds
CYP2C9 F476W mutant [23]; protons H3′/5′
  T1, 2C9: 2.39 (0.08) seconds
  r, distance of proton from the heme iron: 6.49 (0.20) angstroms
CYP2C9 F476W mutant [23]; protons H3′/5′, dithionite/CO
  T1, 2C9 + CO: 2.39 (0.16) seconds
wild-type CYP2C9 [24]; WT
  percent of wild-type kcat/Km: 100%
wild-type CYP2C9 [24]; WT, substrate hydroxylation
  kcat: 0.15 ± 0.0067 s⁻¹
wild-type CYP2C9 [24]; human, pH 7.4
  Km at 20 min: 22.9 ± 3.7 µM
